≈ marks a conversion by molar mass, not a printed value.
Experiment: Aqueous solubility of compound at pH 7 by spectrophotometry
Conditions: aqueous solution

Nc1ccc(S(=O)(=O)Nc2ncccn2)cc1 [SULFADIAZINE]
solubility: 40 µg/mL (≈ 160 µM)
